8 compounds from BindingDB's records for doi:10.3109/14756366.2012.753591 (Gyeongsang National University, 2014) can be followed below.

One assay addresses Replicase polyprotein 1a (Severe acute respiratory syndrome coronavirus, UniProt P0C6U8). Description: SARS-CoV PLpro Inhibition Assay. Conditions: pH 8. How it is done: (§1) Reactions were performed in a total volume of […], which contained thefollowing components: 20mM Tris-buffer, pH 8.0, 10mM DTT, […], 2% DMSO and varying concentrations of inhibitor ([…]). Assays were initiated with the addition of PLpro to produce a final enzyme concentration of 60 nM.

Assay [1] deals with Replicase polyprotein 1a/Z-RLRGG-AMC (Severe acute respiratory syndrome coronavirus, UniProt P0C6U8). Description: SARS-CoV PLpro Inhibition Assay. As to conditions: pH 8. How it is done:
as §1

As usually defined, the IC50 is the midpoint of a concentration-inhibition curve. Low values mean greater potency in that assay, high ones weaker potency in that assay. A word on the Ki: it is a measure of affinity in units of concentration, obtained from inhibition or displacement. A lower Ki goes with a stronger hold on the target.

At Replicase polyprotein 1a, `COc1cc2c(cc1CC=C(C)C)C(=O)CC(c1ccc(O)cc1)O2` (stereo unspecified) [Bavachinin (1)] gave an IC50 of 38.4 µM and a Ki of 18.4 µM.
In the case of `O=c1ccc2ccc3occc3c2o1` [2H-furo[2,3-h]chromen-2-one], on Replicase polyprotein 1a, the IC50 is > 150 µM.
For `CC(C)=CCC/C(C)=C\Cc1cc(-c2coc3cc(O)ccc3c2=O)ccc1O` [Corylifol A (6)], at Replicase polyprotein 1a, 32.3 µM corresponded to half-maximal inhibition (IC50) and the affinity corresponds to a Ki of 11.4 µM.
`CC(C)=CCc1cc(-c2coc3cc(O)ccc3c2=O)ccc1O` [Neobavaisoflavone (2)]: at Replicase polyprotein 1a, half-maximal inhibition (IC50) was put at 18.3 µM and the Ki was 9.4 µM.
Consider `CC(C)=CCc1c(O)ccc(C(=O)/C=C/c2ccc(O)cc2)c1O` [Isobacachalcone], for which inhibition against Replicase polyprotein 1a was half-maximal at 7.3 µM (IC50). Also, the Ki at Replicase polyprotein 1a stood at 4.9 µM; in assay [1] it was 9.1 µM.
Take `O=c1ccc2cc3ccoc3cc2o1` [7H-furo[3,2-g]chromen-7-one]: the concentration for half-maximal inhibition (IC50) on Replicase polyprotein 1a was > 150 µM.
Consider `CC(C)=CCc1cc2c(cc1O)oc(=O)c1c3ccc(O)cc3oc21` [Psoralidin (5)], for which it took 4.2 µM to reach half-maximal inhibition at Replicase polyprotein 1a (IC50). Moreover, the inhibition constant Ki at Replicase polyprotein 1a came to 1.7 µM; in assay [1] it was 4.2 µM.
Consider `COc1cc(O)c(C(=O)/C=C/c2ccc(O)cc2)cc1CC=C(C)C` [4'-O-methylbavachalcone (4)], for which, at Replicase polyprotein 1a, the concentration for half-maximal inhibition (IC50) amounted to 10.1 µM and affinity was put at a Ki of 4.6 µM.
